These results are taken from patent US11273150B2, “Compositions and methods for the treatment of presbyopia” (priority 2018, dated 2022).

One data set has as its system presbyopic subjects. Briefly: Effect of aceclidine on vision of presbyopic subjects aged 47 to 67 years (Example 1). The format is in vivo, human. Conditions: for Effect: duration of effect; for L Post Dist: left eye distance vision; for L Post Dist / L Post Near / R Post Dist / R Post Near: Post Gtt 15″; for R Post Dist: right eye distance vision. On the procedure: As aceclidine is an […], the clinical effectiveness may vary with different ratios. For the present studies a nearly exact 50:50 ratio of stereoisomers was measured as best determined by polarimetry.
After administration of the composition all subjects experienced an improvement in their near vision that lasted from 7 to 12 hours.

In data set [1] the test system is eye. Briefly: Effect of concentration of aceclidine, brimonidine, guanfacine, fadolmidine, tropicamide and additives (Example 3). The format is in vivo, human. On the procedure: All percentages are w/v. Scores for nasal congestion, stinging initial, stinging, 3 min, redness initial, redness 15 min, whitening, pain and overall are out of 4.
“pt” reflects size of print materials, 4 being equivalent to 20/20 vision and 3 to 20/15 vision.
Baseline vision was 20.20 both eyes for distance; 20.70 right eye unaided for near; 20.80 left eye for near (best @ 16″).
D/C stands for discontinued after eye washing due to intolerable stinging.
All baseline vision data was based on vision corrected with distance contact lenses. Near vision was noted by subject as outstanding from 8 to 10 inches to the horizon at 30 minutes after installation for AB4T and AB6T.
AB4T and AB6T were repeated both monocularly and binocularly. Substantial improvement in depth perception, near point acuity to 3 pt (20.15), and near point distance (8″, 20.20) was noted when both eyes were treated vs. monocular treatment.

Data set [2] is described as follows: Stability of aceclidine at 25° C. and 4° C. by HPLC (Example 10). The format is physicochemical. On the procedure:
20 samples of the above composition were divided evenly and stored at 25° C. and 4° C. Prior to storage, initial concentrations of aceclidine were measured using […] (“HPLC”). The amount of aceclidine in each solution was calculated by the area under the principal peak compared to a reference solution of aceclidine. Samples were then subject to storage for 3 months. Aceclidine measurements were taken at 1, 2 and 3 months.

Data set [3] is described as follows: Aceclidine total related substances after storage with or without Mylar lined pouches (Example 18). The format is physicochemical. On the procedure: Aceclidine total related substances was recorded at 1, 2, 3 and 6 months.
Mylar® was used as the source of biaxially-oriented polyethylene terephthalate. Mylar is a registered trademark of and available from DuPont Teijin Films US Limited.

Data set [4] in a line: Aceclidine potency following storage (Example 19). The class given is physicochemical.
The test system of data set [5] is emmetrope over the age of 45. Briefly: Effects of pilocarpine and aceclidine with or without tropicamide and carrier on near and distance vision (FIG. 1). The class given is in vivo, human. The text has this: Subject is an emmetrope over the age of 45 with a baseline near vision of 20.100 and baseline distance vision of 20.20. Topical administration to the eye of 1% w/v pilocarpine in saline solution results in an improvement of near vision to 20.40 (8a), however this improvement comes at the expense of a reduction in distance vision to 20.100 (8b). […] A proper drug carrier can also have a beneficial effect.

For data set [6], the system named is eye. Briefly: Clinical observations stated in the description (miosis, duration, blur, redness, anterior chamber). The class given is in vivo, human.
The test system of data set [7] is eye. Conditions: cited from earlier work.
In data set [8] the test system is eye. Briefly: Efficacy and comfort of various nonionic surfactants (Example 15, Table 10). Set-up: species or system human. Conditions: in vivo. The text has this: Duration was excellent for each nonionic surfactant tested.
Setting [9] is: aceclidine 1.1% w/v + 0.125% w/v tropicamide, subjects 4 and 5.
Where [10] appears, read: aceclidine 1.5% w/v in HPβCD/CMC/NaCl/BAK, one line per subject.
Setting [11] is: Pouched (5 C.), first listing (r9).
[12] abbreviates: Pouched (5 C.), second listing (r12).
The mark [13] stands for this setting: Pouched (25 C.), first listing (r10).
Where [14] appears, read: Pouched (25 C.), second listing (r13).
[15] abbreviates: Pouched (5 C.), first group (initial 99.70%).
The mark [16] stands for this setting: Pouched (5 C.), second group (initial 99.60%).
The mark [17] stands for this setting: Pouched (25 C.), first group (initial 99.70%).
The mark [18] stands for this setting: Pouched (25 C.), second group (initial 99.60%).

Where “and” joins values, the source holds several entries; their conditions need not be identical. Equal entries are not always repeated.

As to `CC(=O)OC1CN2CCC1CC2` (stereo not drawn) [Aceclidine, aceclidine], the “Effect” value is 7.00 h and 12.00 h in the data set on presbyopic subjects (setting [9]); 8.00 h (4×) and 9.00 h with presbyopic subjects (setting [10]). The “L Post Dist” value in the data set on presbyopic subjects (setting [9]) was 20.20 and 20.15; in the data set on presbyopic subjects (setting [10]), 20.20 (2×) and 20.30 and 20.25 (2×). Moreover, the “L Post Near” value in the data set with presbyopic subjects (left eye near vision (15 inches), aceclidine 1.5% w/v in HPβCD/CMC/NaCl/BAK, one line per subject) is 20.15 (3×) and 20.30 and 20.20; in the data set with presbyopic subjects (left eye near vision, aceclidine 1.1% w/v + 0.125% w/v tropicamide, subjects 4 and 5), 20.25 and 20.15. Also, the “R Post Dist” value with presbyopic subjects (aceclidine 1.1% w/v + 0.125% w/v tropicamide, same carrier, subjects 4 and 5) was 20.20 and 20.15; in the data set on presbyopic subjects (setting [10]) it was 20.20 (3×) and 20.25 (2×). Also, the “R Post Near” value in the data set on presbyopic subjects (right eye near vision (15 inches), aceclidine 1.5% w/v in HPβCD/CMC/NaCl/BAK, one line per subject) was 20.15 (3×) and 20.20 and 20.25; with presbyopic subjects (right eye near vision, aceclidine 1.1% w/v + 0.125% w/v tropicamide, subjects 4 and 5) it was 20.25 and 20.20. For the same compound, the “corrected near and distance vision to 20.20 or better, duration” value in the data set on eye [1] (aceclidine 1.55% w/v) is “at least 6 hours”. In addition, the noticeable affect lasting result in the data set with eye [1] (aceclidine 1.55% w/v) was “about 7.5 hours”. For the same compound, the “size of the pupil” value with eye [1] (aceclidine 1.55% w/v, 30 minutes after topical instillation) was “about 1.63 mm”. In addition, the near vision improvement in the data set with eye [1] (aceclidine lowered to 1.25% w/v (not shown)) is listed as 20.25-20.30. In addition, the “Stability of Aceclidine, 1 month” value in [2] (4° C., Example 10 composition) came to 93%; in data set [2] (25° C., Example 10 composition), 92%. Moreover, the “Stability of Aceclidine, 2 months” value is reported as 92% in [2] (4° C., Example 10 composition) and 75% in data set [2] (25° C., Example 10 composition). Also, the “Stability of Aceclidine, 3 months” value is recorded as 88% in [2] (4° C., Example 10 composition) and 50% in [2] (25° C., Example 10 composition). The “Stability of Aceclidine, Initial” value in data set [2] (4° C., Example 10 composition) amounted to 100%; in data set [2] (25° C., aceclidine 1.50%, tropicamide 0.042%, polyoxyl 40 stearate 5.5%, mannitol 2.5%, citrate 3 mM, pH 4.75) it was 100%. Further, the “Aceclidine Total Related Substances, One Month Result” value in data set [3] (setting [11]) was determined as 0.54%; in [3] (setting [12]), 0.50%; in data set [3] (setting [13]), 0.55%; in [3] (setting [14]), 0.74%; in [3] (Pouched (−20 C.)), 0.74%; in data set [3] (Unpouched (5 C.)) it was 0.55%. In addition, in [3] (Unpouched (25 C.)), the “Aceclidine Total Related Substances, One Month Result” value is recorded as 0.58%. The “Aceclidine Total Related Substances, Six Month Result” value in [3] (setting [11]) worked out at 0.47%; in data set [3] (setting [12]) it was 0.00%; in [3] (setting [13]), 0.36%; in data set [3] (setting [14]), 0.00%; in data set [3] (Pouched (−20 C.)), 0.00%; in data set [3] (Unpouched (5 C.)) it was 0.49%. The “Aceclidine Total Related Substances, Six Month Result” value in data set [3] (Unpouched (25 C.)) was 4.87%. Besides, the “Aceclidine Total Related Substances, Three Month Result” value in data set [3] (setting [11]) worked out at 0.35%; in data set [3] (setting [12]), 0.18%; in data set [3] (setting [13]), 1.26%; in [3] (setting [14]), 0.31%; in data set [3] (Pouched (−20 C.)), 0.25%; in [3] (Unpouched (5 C.)) it was 0.05%. In [3] (Unpouched (25 C.)), the “Aceclidine Total Related Substances, Three Month Result” value is 1.39%. Further, the “Aceclidine Total Related Substances, Total % Change” value is 0.06% in data set [3] (setting [11]); −0.41% in data set [3] (setting [12]); −0.05% and 0.05% in data set [3] (setting [13]); −0.41% in data set [3] (setting [14]); −0.41% in [3] (Pouched (−20 C.)); 0.08% in [3] (Unpouched (5 C.)). In addition, in data set [3] (Unpouched (25 C.)), the “Aceclidine Total Related Substances, Total % Change” value was found to be 4.46%. Besides, the entries for the “Aceclidine Total Related Substances, Two Month Result” value in data set [3] (Unpouched (5 C.)) and in data set [3] (Unpouched (25 C.)) were 0.51% and 1.45%, respectively. The “Aceclidine Total Related Substances, Initial Result” value in data set [3] (Unpouched (5 C.) line, initial) was 0.41%. The “Aceclidine Potency, One Month Result” value in [4] (setting [15]) was determined as 100.0%; in data set [4] (setting [16]) it was 99.5%; in data set [4] (setting [17]), 98.4%; in data set [4] (setting [18]) it was 103.0%; in [4] (Pouched (−25 C.)), 98.5%; in [4] (Unpouched (5 C.)), 99.3%. The “Aceclidine Potency, One Month Result” value in data set [4] (Unpouched (25 C.)) came out at 98.2%. The “Aceclidine Potency, Six Month Result” value in [4] (setting [15]) came out at 100.8%; in data set [4] (setting [16]), 102.2%; in data set [4] (setting [17]) it was 94.9%; in data set [4] (setting [18]), 96.0%; in [4] (Pouched (−25 C.)) it was 103.1%; in [4] (Unpouched (5 C.)), 100.5%. Besides, in [4] (Unpouched (25 C.)), the “Aceclidine Potency, Six Month Result” value is 97.7%. Also, the “Aceclidine Potency, Three Month Result” value was found to be 99.7% in data set [4] (setting [15]); 102.3% in data set [4] (setting [16]); 97.5% in data set [4] (setting [17]); 99.0% in data set [4] (setting [18]); 101.4% in data set [4] (Pouched (−25 C.)); 100.0% in data set [4] (Unpouched (5 C.)). Further, the “Aceclidine Potency, Three Month Result” value in data set [4] (Unpouched (25 C.)) turned out to be 98.2%. The “Percent Change Between Initial and Six Month Results” value in [4] (setting [15]) is reported as 1.1%; in [4] (setting [16]), 2.6%; in data set [4] (setting [17]), −4.8%; in data set [4] (setting [18]), 3.6%; in data set [4] (Pouched (−25 C.)) it was 3.5%; in data set [4] (Unpouched (5 C.)) it was 0.8%. The “Percent Change Between Initial and Six Month Results” value in data set [4] (Unpouched (25 C.)) is reported as −2.0%. Further, the “Aceclidine Potency, Initial Result” value is on record as 99.60% in data set [4] (Pouched (−25 C.) line, initial of second group) and 99.70% in [4] (Unpouched (5 C.) line, initial of first group). For the same compound, the figures for the “Aceclidine Potency, Two Month Result” value in data set [4] (Unpouched (5 C.)) and in data set [4] (Unpouched (25 C.)) were 102.0% and 101.9%, respectively. Moreover, the “extended time period of near vision improvement” value in data set [5] (1.55% w/v aceclidine in saline solution) came out at 6 h. Moreover, the distance vision entry in data set [5] (1.55% w/v aceclidine in saline solution, baseline 20.20) is recorded as “without any effect on the baseline distance vision”. The near vision in data set [5] (1.55% w/v aceclidine in saline solution, baseline near 20.100) was 20.40; in data set [5] (aceclidine + 0.042% w/v tropicamide in the carrier), 20.15; in data set [5] (aceclidine in carrier (5.5% HPβCD, 0.75% CMC, 0.25% NaCl, 0.01% BAK), better than), over 20.20. Further, the anterior chamber shallowing with eye [6] (aceclidine with further inclusion of a cycloplegic agent) turned out to be 0.04 mm.

As for `Brc1c(NC2=NCCN2)ccc2nccnc12` [brimonidine], the “rebound redness, patients” value in the data set with eye [7] (brimonidine 0.20% w/v (Alphagan®) twice daily) is listed as 25%. Moreover, in the data set on eye [7] (brimonidine 0.20% w/v topically for night vision, within four weeks of use, almost), the “tachyphylaxis of pupil modulation, treated subjects” value is given as about 100%.

`CC[C@@H]1C(=O)OC[C@@H]1Cc1cncn1C` [pilocarpine]: the distance blur in the data set on eye [6] (pilocarpine instilled monocularly) is listed as 2-3 lines. This compound yielded a pupil size in the data set on eye [6] (upon instillation of 1.0% pilocarpine, or larger in most subjects) of at least 2.3 mm.

As for Poloxamer 188, in the data set with eye [8], the “Redness 1 hr” value is 0.25- and the Stinging is recorded as 0-2.

Poloxamer 407: in the data set with eye [8], the “Redness 1 hr” value amounted to 1 and the Stinging is 0.5.

In the case of Polyoxyl 35 castor oil, in the data set with eye [8], the “Redness 1 hr” value turned out to be 0.25 and the Stinging was found to be 0.

On to Polysorbate 80, for which, in the data set with eye [8], the “Redness 1 hr” value is reported as 0.5 and the Stinging worked out at 0.25.

Turning to Tyloxapol, in the data set with eye [8], the “Redness 1 hr” value is 0.25- and the Stinging was 0-2.
